Measured values published in patent US20090047246A1, “NOVEL INHIBITORS OF HEPATITIS C VIRUS REPLICATION” (InterMune, Inc., priority 2007, published 2009).

The compounds below were run against T1, HCV NS3 helicase (Hepatitis C virus genotype 1b, UniProt P26663) (assay: HCV Helicase Prompt FRET Assay (Example A)). Details: HCV NS3 helicase; tables do not say whether Example A or Example B assay; read-out: IC50 Activity.
T1 construct: full-length NS3 (1-631), purified at Array BioPharma
Format: biochemical
Method in brief: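 Full-length NS3 (1-631), 5 or 6 nM, preincubated 5 min with compound, then unwinds 50 nM FAM/BHQ-1 duplex substrate with 250 nM capture strand and 300 μM ATP in 25 mM MOPS pH 7.0, 1.5 mM MgCl2, 0.005% Triton X-100, 2% DMSO. Fluorescence (485/535 nm) followed ~30 min at room temperature; IC50 from initial rates by 4- or 5-parameter fit.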

T1 sequence (P26663 1027-1657): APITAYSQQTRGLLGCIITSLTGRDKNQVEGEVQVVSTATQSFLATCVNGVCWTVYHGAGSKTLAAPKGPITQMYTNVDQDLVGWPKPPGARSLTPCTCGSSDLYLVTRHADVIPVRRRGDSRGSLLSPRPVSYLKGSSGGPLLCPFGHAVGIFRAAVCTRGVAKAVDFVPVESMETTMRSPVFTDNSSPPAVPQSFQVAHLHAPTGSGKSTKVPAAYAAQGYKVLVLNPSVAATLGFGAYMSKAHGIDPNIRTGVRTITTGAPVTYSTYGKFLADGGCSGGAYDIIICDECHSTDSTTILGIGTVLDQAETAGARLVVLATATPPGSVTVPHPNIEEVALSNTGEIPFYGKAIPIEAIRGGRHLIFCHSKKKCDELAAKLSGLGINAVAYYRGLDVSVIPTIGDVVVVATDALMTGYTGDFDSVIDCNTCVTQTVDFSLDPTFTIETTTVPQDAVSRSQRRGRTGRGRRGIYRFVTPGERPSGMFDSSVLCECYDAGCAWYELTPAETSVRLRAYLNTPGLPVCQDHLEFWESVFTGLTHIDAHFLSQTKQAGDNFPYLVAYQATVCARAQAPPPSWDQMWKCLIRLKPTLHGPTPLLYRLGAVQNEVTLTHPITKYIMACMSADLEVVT

| Structure (SMILES) | IC50 [µM] |
| --- | --- |
| CC(=O)c1c(CC(=O)O)c2ccccc2n1-c1ccc(N(C)Cc2ccccc2)cc1 [Example 737] | 10 to 50 |
| CN(Cc1ccccc1)c1ccc(-n2c(C(=O)c3ccc(-c4ccc(Cl)c(Cl)c4)cc3)c(CC(=O)O)c3ccccc32)cc1 [Example 738] | 10 to 50 |
| O=C(O)Cc1c(Cc2ccc(-c3ccccc3Cl)cc2)[nH]c2ccc(Br)cc12 [Example 739] | 10 to 50 |
| O=C(O)Cc1cn(Cc2csc3ccc(Cl)cc23)c2cc(-c3ccnc(Cl)c3)ccc12 [Example 740] | 10 to 50 |
| O=C(O)Cc1cn(Cc2csc3ccc(Cl)cc23)c2cc(-c3ccnc(NCCO)c3)ccc12 [Example 741] | < 10 |
| OC1CCCN(c2ccc3ccn(Cc4csc5ccc(Cl)cc45)c3c2)C1 (stereo not shown) [Example 742] | 10 to 50 |
| O=C(O)Cc1cn(Cc2csc3ccc(Cl)cc23)c2cc(-c3cccnc3)ccc12 [Example 743] | 10 to 50 |
| O=C(O)C(=O)c1cn(Cc2csc3ccc(Cl)cc23)c2cc(N3CCCC(O)C3)ccc12 (stereo not shown) [Example 744] | < 10 |
| O=C(O)Cc1cn(Cc2csc3ccc(Cl)cc23)c2cc(N3CCCC(O)C3)ccc12 (stereo not shown) [Example 746] | 10 to 50 |
| Nc1cc(-c2ccc3c(CC(=O)O)cn(Cc4csc5ccc(Cl)cc45)c3c2)ccn1 [Example 747] | 10 to 50 |

Same assay, conditions: IC50 Activity, Table 38, compounds made using Scheme 56, Scheme 57 and Scheme 61

| Structure (SMILES) | IC50 [µM] |
| --- | --- |
| CCOC(=O)Cc1cn(C(=O)c2csc3ccc(Cl)cc23)c2cc(-c3cc([N+](=O)[O-])cc([N+](=O)[O-])c3)ccc12 [Example 795] | > 50 |

Same assay, conditions: Table 35, compounds made using Scheme 53; read-out: IC50 Activity

| Structure (SMILES) | IC50 [µM] |
| --- | --- |
| Nc1cc(N)cc(-c2ccc3c(CC(=O)O)cn(Cc4csc5ccc(Br)cc45)c3c2)c1 [Example 734] | 10 to 50 |
| CCOC(=O)Cc1cn(Cc2cccc3nc(C)ccc23)c2cc(-c3cc(N)cc(N)c3)ccc12 [Example 791] | 10 to 50 |
| CCOC(=O)Cc1cn(Cc2csc3ccc(F)cc23)c2cc(-c3cc([N+](=O)[O-])cc([N+](=O)[O-])c3)ccc12 [Example 792] | > 50 |
| CCOC(=O)Cc1cn(Cc2cccc3sc(Cl)nc23)c2cc(-c3cc([N+](=O)[O-])cc([N+](=O)[O-])c3)ccc12 [Example 793] | 10 to 50 |
| CCOC(=O)Cc1cn(Cc2cccc3sc(Cl)nc23)c2cc(-c3cc(N)cc(N)c3)ccc12 [Example 794] | 10 to 50 |

Same assay, conditions: Table 36, compounds made using Scheme 54; read-out: IC50 Activity

| Structure (SMILES) | IC50 [µM] |
| --- | --- |
| Nc1cc(N)cc(-c2ccc3c(CC(=O)O)cn(Cc4csc5cc(Cl)ccc45)c3c2)c1 [Example 728] | < 10 |
| Nc1cc(N)cc(-c2ccc3c(CC(=O)O)cn(Cc4nc5ccccc5s4)c3c2)c1 [Example 735] | > 50 |
| Cc1sc2ccc(Cl)cc2c1Cn1cc(CC(=O)O)c2ccc(Br)cc21 [Example 777] | 10 to 50 |
| Cc1sc2ccc(Cl)cc2c1Cn1cc(CC(=O)O)c2ccc(-c3cc(N)cc(N)c3)cc21 [Example 778] | < 10 |
| CCOC(=O)Cc1cn(Cc2csc3c(Cl)c(Cl)ccc23)c2cc(Br)ccc12 [Example 779] | > 50 |
| O=C(O)Cc1cn(Cc2csc3c(Cl)c(Cl)ccc23)c2cc(Br)ccc12 [Example 780] | > 50 |
| O=C(O)Cc1cn(Cc2csc3c(Cl)cccc23)c2cc(Br)ccc12 [Example 782] | > 50 |
| O=C(O)Cc1cn(Cc2csc3cccc(Cl)c23)c2cc(Br)ccc12 [Example 783] | 10 to 50 |
| O=C(O)Cc1cn(Cc2csc3cccc(Cl)c23)c2cc(Br)ccc12 [Example 784] | > 50 |
| O=C(O)Cc1cn(Cc2csc3cc(Cl)ccc23)c2cc(Br)ccc12 [Example 785] | > 50 |
| O=C(O)Cc1cn(Cc2csc3cc(Cl)cc(Cl)c23)c2cc(Br)ccc12 [Example 786] | > 50 |
| Nc1cc(N)cc(-c2ccc3c(CC(=O)O)cn(Cc4csc5cc(Cl)cc(Cl)c45)c3c2)c1 [Example 787] | 10 to 50 |
| Cc1sc2cc(Cl)c(F)cc2c1Cn1cc(CC(=O)O)c2ccc(-c3cc(N)cc(N)c3)cc21 [Example 788] | < 10 |
| N#Cc1ccc2c(CC(=O)O)cn(Cc3csc4ccc(Cl)cc34)c2c1 [Example 789] | 10 to 50 |
| Cc1sc2ccc(Cl)cc2c1Cn1cc(CC(=O)O)c2ccccc21 [Example 790] | > 50 |

Same assay, conditions: Table 37, compounds made using Scheme 55; read-out: IC50 Activity

| Structure (SMILES) | IC50 [µM] |
| --- | --- |
| COc1cccc(-c2ccc3c(CC(=O)O)cn(Cc4csc5ccc(Cl)cc45)c3c2)c1 [Example 746] | > 50 |
| COc1ccccc1-c1ccc2c(CC(=O)O)cn(Cc3csc4ccc(Cl)cc34)c2c1 [Example 747] | > 50 |
| Cc1ccc(-c2ccc3c(CC(=O)O)cn(Cc4csc5ccc(Cl)cc45)c3c2)cc1 [Example 751] | > 50 |
| Cc1cccc(-c2ccc3c(CC(=O)O)cn(Cc4csc5ccc(Cl)cc45)c3c2)c1 [Example 752] | 10 to 50 |
| O=C(O)Cc1cn(Cc2csc3ccc(Cl)cc23)c2cc(-c3ccc(Cl)cc3)ccc12 [Example 753] | > 50 |
| O=C(O)Cc1cn(Cc2csc3ccc(Cl)cc23)c2cc(-c3cccc(Cl)c3)ccc12 [Example 754] | > 50 |
| N#Cc1ccccc1-c1ccc2c(CC(=O)O)cn(Cc3csc4ccc(Cl)cc34)c2c1 [Example 755] | > 50 |
| N#Cc1cccc(-c2ccc3c(CC(=O)O)cn(Cc4csc5ccc(Cl)cc45)c3c2)c1 [Example 756] | 10 to 50 |
| N#Cc1ccc(-c2ccc3c(CC(=O)O)cn(Cc4csc5ccc(Cl)cc45)c3c2)cc1 [Example 757] | 10 to 50 |
| O=C(O)Cc1cn(Cc2csc3ccc(Cl)cc23)c2cc(-c3ccccc3F)ccc12 [Example 758] | > 50 |
| O=C(O)Cc1cn(Cc2csc3ccc(Cl)cc23)c2cc(-c3cccc(F)c3)ccc12 [Example 759] | > 50 |
| O=C(O)Cc1cn(Cc2csc3ccc(Cl)cc23)c2cc(-c3cccc(CO)c3)ccc12 [Example 760] | 10 to 50 |
| CN(C)C(=O)c1cccc(-c2ccc3c(CC(=O)O)cn(Cc4csc5ccc(Cl)cc45)c3c2)c1 [Example 761] | 10 to 50 |
| NC(=O)c1ccccc1-c1ccc2c(CC(=O)O)cn(Cc3csc4ccc(Cl)cc34)c2c1 [Example 762] | > 50 |
| NC(=O)c1cccc(-c2ccc3c(CC(=O)O)cn(Cc4csc5ccc(Cl)cc45)c3c2)c1 [Example 763] | 10 to 50 |
| O=C(O)Cc1cn(Cc2csc3ccc(Cl)cc23)c2cc(-c3ccncc3)ccc12 [Example 764] | 10 to 50 |
| Nc1cccc(-c2ccc3c(CC(=O)O)cn(Cc4csc5ccc(Cl)cc45)c3c2)c1 [Example 765] | < 10 |
| CC(=O)Nc1cccc(-c2ccc3c(CC(=O)O)cn(Cc4csc5ccc(Cl)cc45)c3c2)c1 [Example 766] | 10 to 50 |
| NC(=O)Nc1cccc(-c2ccc3c(CC(=O)O)cn(Cc4csc5ccc(Cl)cc45)c3c2)c1 [Example 767] | 10 to 50 |
| CC(=O)Nc1ccccc1-c1ccc2c(CC(=O)O)cn(Cc3csc4ccc(Cl)cc34)c2c1 [Example 768] | 10 to 50 |
| NC(=O)Nc1ccccc1-c1ccc2c(CC(=O)O)cn(Cc3csc4ccc(Cl)cc34)c2c1 [Example 769] | > 50 |
| Cc1sc2ccc(Cl)cc2c1Cn1cc(CC(=O)O)c2ccc(-c3ccccc3)cc21 [Example 770] | < 10 |

Same assay, conditions: Table 38, compounds made using Scheme 56, Scheme 57 and Scheme 61; read-out: IC50 Activity

| Structure (SMILES) | IC50 [µM] |
| --- | --- |
| CN(C=O)c1cc(Cl)cc2c(Cn3cc(CC(=O)O)c4ccc(-c5cc(N)cc(N)c5)cc43)csc12 [Example 729] | 10 to 50 |
| CN(c1cc(Cl)cc2c(Cn3cc(CC(=O)O)c4ccc(-c5cc(N)cc(N)c5)cc43)csc12)S(C)(=O)=O [Example 730] | 10 to 50 |
| CCNc1cc(Cl)cc2c(Cn3cc(CC(=O)O)c4ccc(-c5cc(N)cc(N)c5)cc43)csc12 [Example 731] | < 10 |
| CCN(C)c1cc(Cl)cc2c(Cn3cc(CC(=O)O)c4ccc(-c5cc(N)cc(N)c5)cc43)csc12 [Example 732] | < 10 |
| CCOC(=O)Cc1cn(Cc2csc3c(N(C=O)CC)cc(Cl)cc23)c2cc(Br)ccc12 [Example 771] | > 50 |
| CCNc1cc(Cl)cc2c(Cn3cc(CC(=O)O)c4ccc(Br)cc43)csc12 [Example 772] | > 50 |
| CC(C)(C)OC(=O)N(c1cc(Cl)cc2c(Cn3cc(CC(=O)O)c4ccc(Br)cc43)csc12)C1CC1 [Example 773] | > 50 |
| CC(C)(C)OC(=O)N(c1cc(Cl)cc2c(Cn3cc(CC(=O)O)c4ccc(Br)cc43)csc12)C1CC1 [Example 774] | < 10 |

Each compound was assayed against NS3 Helicase (Hepatitis C virus genotype 1b, UniProt P26663) (assay: Activity of NS3 Helicase in Presence of Detergent with or without LDAO (Table A)). Details: plus LDAO 0.6 mM; detergent 0.05 mM.
Format: biochemical
Procedure: In another embodiment, at least one detergent is added to a solution containing NS3 to improve the helicase activity. In some embodiments, the detergent is selected from the group consisting of LDAO, Tween 20, Triton X100, Pluronic F127, CHAPS, β-octyl glucoside, laurylmaltoside, N-lauroylsarcosine, and hexadecyltrimethylammonium bromide. In a preferred embodiment, LDAO is added. In a more preferred embodiment, at least one additional detergent in added to the solution containing NS3 and LDAO. In some embodiments, the additional detergent(s) is/are selected from the group consisting of Tween 20, Triton X100, Pluronic F127, CHAPS, β-octyl glucoside, laurylmaltoside, N-lauroylsarcosine, and hexadecyltrimethylammonium bromide. Table A represents the helicase activity of NS3 in the presence of LDAO and at least one additional detergent; and, in the absence of LDAO and the presence of at least one other detergent.

Chain of NS3 Helicase (P26663 1027-1657): as above

| Structure (SMILES) | Slope [mP/min] |
| --- | --- |
| CCCCCCCCCCCC(=O)N(C)CC(=O)O [N-lauroylsarcosine] | −0.53 |
| CCCCCCCCCCCCCCCC[N+](C)(C)C.[Br-] [hexadecyltrimethylammonium bromide] | 0.24 |
| CCCCCCCCCCCCO[C@@H]1O[C@H](CO)[C@@H](O[C@H]2O[C@H](CO)[C@@H](O)[C@H](O)[C@H]2O)[C@H](O)[C@H]1O [laurylmaltoside] | −0.8 |

Same assay, conditions: plus LDAO 0.6 mM; detergent 0.05 mM; control = 100

| Structure (SMILES) | Activity [%] |
| --- | --- |
| CCCCCCCCCCCC(=O)N(C)CC(=O)O [N-lauroylsarcosine] | 87 |
| CCCCCCCCCCCCCCCC[N+](C)(C)C.[Br-] [hexadecyltrimethylammonium bromide] | −39 |
| CCCCCCCCCCCCO[C@@H]1O[C@H](CO)[C@@H](O[C@H]2O[C@H](CO)[C@@H](O)[C@H](O)[C@H]2O)[C@H](O)[C@H]1O [laurylmaltoside] | 131 |

Same assay, conditions: plus LDAO 0.6 mM; detergent 0.2 mM

| Structure (SMILES) | Slope [mP/min] |
| --- | --- |
| CCCCCCCCCCCC(=O)N(C)CC(=O)O [N-lauroylsarcosine] | −0.28 |
| CCCCCCCCCCCCCCCC[N+](C)(C)C.[Br-] [hexadecyltrimethylammonium bromide] | 0.74 |
| CCCCCCCCCCCCO[C@@H]1O[C@H](CO)[C@@H](O[C@H]2O[C@H](CO)[C@@H](O)[C@H](O)[C@H]2O)[C@H](O)[C@H]1O [laurylmaltoside] | −1.23 |

Same assay, conditions: plus LDAO 0.6 mM; detergent 0.2 mM; control = 100

| Structure (SMILES) | Activity [%] |
| --- | --- |
| CCCCCCCCCCCC(=O)N(C)CC(=O)O [N-lauroylsarcosine] | 46 |
| CCCCCCCCCCCCCCCC[N+](C)(C)C.[Br-] [hexadecyltrimethylammonium bromide] | −121 |
| CCCCCCCCCCCCO[C@@H]1O[C@H](CO)[C@@H](O[C@H]2O[C@H](CO)[C@@H](O)[C@H](O)[C@H]2O)[C@H](O)[C@H]1O [laurylmaltoside] | 202 |
